We go through three compounds from patent US20220275376A1, “TARGETING SLC38A2 IN PANCREATIC CANCER” (New York University, priority 2019, published 2022).

The subject of one test is HY19636 cells. Description: Intracellular amino acid levels in SLC38A2-deficient HY19636 cells after alanine supplementation. It counts as cell-based, mouse. As to conditions: SLC38A2-deficient (sgSlc38a2 #1) HY19636 cells, 1 mM, 24 hours. Here is the method: (A) Serine, glycine, proline, and glutamate extracellular fluxes in SLC38A2-deficient (sgSLC38A2 #1, #3) and control (sgTom) HY19636, MiaPaCa2, and PANC1 cells cultured in DMEM. Extracellular accumulation (+, secretion) or depletion (−, uptake) was measured in conditioned media over 24 hours and normalized to the viable cell density over the time course. Error bars depict s.d. of three independent experiments. (B) Essential amino acid (leucine, isoleucine, valine, threonine) uptake fluxes in SLC38A2-deficient (sgSLC38A2 #1, #3) and control (sgTom) HY19636, MiaPaCa2, and PANC1 cells cultured in DMEM for 24 hours. Error bars depict s.d. of three independent experiments. […] Data presented as a percent change for each amino acid relative to that measured in DMEM conditions. […]
For ^13C- and ^15N-labeled alanine tracing experiments, cells were plated into 6-well plates at 250,000 cells/well and allowed to attach overnight. […] Fatty acid labeling from ^13C3-alanine was measured by transferring 400 μL of the inorganic layer to a glass vial and evaporating under nitrogen flow in a needle evaporator prior to transesterification and GC-MS analysis. To quantify contribution to proteogenic amino acid pools, the insoluble interphase layer containing proteins was washed three times with HPLC-grade acetone and allowed to dry overnight with gentle nitrogen flow in a needle evaporator. […]

A further test has as its target T1, SLC38A2 (Homo sapiens, UniProt Q96QD8).
T1 construct: expressed in transfected cells; host or cells: HY15549 cells with dox-inducible SNAT2
T1 sequence (Q96QD8 1-506): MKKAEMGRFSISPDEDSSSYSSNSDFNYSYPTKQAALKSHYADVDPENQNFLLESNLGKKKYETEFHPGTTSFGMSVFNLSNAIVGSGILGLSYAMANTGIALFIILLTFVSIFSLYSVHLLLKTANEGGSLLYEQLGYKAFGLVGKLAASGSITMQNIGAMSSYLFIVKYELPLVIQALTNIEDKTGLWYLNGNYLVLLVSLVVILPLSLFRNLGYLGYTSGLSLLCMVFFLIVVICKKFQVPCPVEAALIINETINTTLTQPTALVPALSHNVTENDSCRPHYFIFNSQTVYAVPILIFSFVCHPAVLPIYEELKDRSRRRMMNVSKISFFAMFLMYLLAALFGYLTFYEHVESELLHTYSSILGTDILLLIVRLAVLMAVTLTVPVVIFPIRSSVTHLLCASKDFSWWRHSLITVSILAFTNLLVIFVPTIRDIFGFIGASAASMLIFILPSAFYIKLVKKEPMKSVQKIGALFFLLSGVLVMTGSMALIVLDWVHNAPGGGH
Description: SLC38A2 activity measured by MeAIB uptake in HY15549 dox-inducible SNAT2 cells. It counts as cell-based. As to conditions: 20 μm compound, MeAIB 0.3 mM, 1 hour, vs vehicle (PBS), HY15549 cells expressing dox-inducible SLC38A2/SNAT2. As to the method: (A) Schematic depicting SLC38A2-dependent update of alanine structural analog, methyl α-aminoisobutyrate (MeAIB). […] (B) Total ion chromatogram (TIC) of HY15549 dox-inducible SNAT2 cells treated with 1 mM MeAIB for 24 hours compared to vehicle (PBS). […] HY15549 dox-inducible SNAT2 cells were cultured with a concentration gradient of MeAIB for 15 minutes (gray circles) or 60 minutes (black squares). (D) Western blot depicting SLC38A2 expression relative to doxycycline after 24 hours culture in HY15549 dox-inducible SNAT2 cells. (E) Intracellular MeAIB levels in HY15549 dox-inducible cells cultured with dox (+SNAT2, left bar) and without dox (KO, right bar) for 24 hours with 1 mM MeAIB. (F) Intracellular MeAIB levels in HY15549 dox-inducible cells cultured with vehicle, paroxetine (PXT, 20 μM), or sertraline (SRT, 20 μm) for 24 hours with 300 μM MeAIB.

Another test has as its system 8988T cells. Kind of test: Alanine uptake from culture media conditioned by 8988T cells. It counts as cell-based. As to conditions: 10 μM, vs vehicle (DMSO), up to 96 hours. As to the method: (A) Alanine levels in culture media conditioned by 8988T cells treated with vehicle (DMSO) or fluvoxamine (FVX, 10 μM) over time. (B) Alanine uptake flux by 8988T cells treated with vehicle (DMSO) or fluvoxamine (FVX, 10 μM) for 96 hours. Data were normalized to cell growth over the treatment period. (C) Glutamine levels in culture media conditioned by 8988T cells treated with vehicle (DMSO) or fluvoxamine (FVX, 10 μM) over time. (D) Absolute values for amino acid uptake or secretion flux by 8988T cells treated with vehicle (DMSO) or fluvoxamine (FVX, 10 μM) for 96 hours. Data were normalized to cell growth over the treatment period.
Fluvoxamine (FVX), fluoxetine (FLX), paroxetine (PXT), sertindole (SND), and blonanserin (BNS) were acquired from Cayman Chemicals. Desipramine (DPM), α-(Methylamino) isobutyric acid (MeAIB), and L-alanine were acquired from Sigma. Stocks were prepared at 10 mM or 7.5 mM (BNS) in DMSO. Cells were treated with vehicle (DMSO) or varying concentrations of drug for indicated time. Conditioned media was collected and centrifuged at 1,000×g to remove cell debris followed by extraction of metabolites. For metabolite extraction, cells were first washed with ice cold 0.9% NaCl to remove media contamination followed by addition of 500 μL methanol (−20° C.) and 200 μL HPLC grade water (4° C.). […]

Structures are written as SMILES.

In the case of `C[C@H](N)C(=O)OC(C)(C)C` [L-alanine tert-butyl ester], the “rescue of amino acid defect (change in intracellular amino acids relative to DMEM)” value in the test on HY19636 cells is recorded as “failed to rescue amino acid defect”.

As for `C[C@H](N)C(=O)O` [L-alanine], the “rescue of amino acid defect (change in intracellular amino acids relative to DMEM)” value in the test on HY19636 cells is reported as “failed to rescue amino acid defect”. `COCCCC/C(=N\OCCN)c1ccc(C(F)(F)F)cc1` [fluvoxamine]: the “inhibition of MeAIB uptake (intracellular MeAIB levels)” value on SLC38A2 was “inhibited”. In the test with 8988T cells, the “alanine uptake in PDAC cells” value is “significantly and specifically inhibits alanine uptake”.
